What was measured:
[1] = test system: NO production by RAW264.7 cells; test: Inhibitory activity on NO production in LPS/interferon-γ stimulated RAW264.7 cells; format: cell-based, mouse; conditions: LPS 5 ng/ml + interferon-γ 1 U/ml, overnight, nitrite in culture supernatant
Experimental: Using mouse macrophage cell line, RAW264.7 as iNOS inducible cells, percent inhibition of NO production by the test compound was measured. The test compound was dissolved in N,N-dimethylformamide to 10 mM and diluted with RPMI-1640 medium to 0.1 mM. Furthermore, it was prepared with a medium to make a final concentration from 10 μM to 10 nM by diluting 10-fold, and added to the culture. The day before the experiment, the cells were prepared with RPMI-1640 medium supplemented with heat-inactivated 10% fetal calf serum to a concentration of 5×10^5 cells/ml and plated to a 96-well plate by 1×10^5 cells/0.2 ml per well. After culturing at 37° C. under 5% CO2/95% air overnight, the medium was changed to RPMI-1640 medium supplemented with heat-inactivated 1% fetal calf serum. Thereto was added the prepared test compound, and LPS and interferon-γ were added to a final concentrations of 5 ng/ml and 1 U/ml, respectively. After incubation overnight, the concentration of nitrite ion (stable metabolite of NO) in the culture supernatant was measured and used as an index of NO production. The nitrite concentration was quantitatively measured by adding 20 μg/ml 2,3-diaminonaphtalene (DAN) by 25 μl to the culture supernatant (50 μl), incubating at room temperature for 10 min, adding 0.5N NaOH (25 μl) and measuring the fluorescence at 450 nm (excitation wavelength 365 nm).

[2] = test system: IL-1β production by human monocyte cell line P31/FUJ; test: Inhibitory activity on IL-1β production in P31/FUJ cells; format: cell-based; conditions: PMA pretreated, LPS 100 ng/ml + interferon-γ 10 U/ml, overnight
Experimental: (§1) Using human monocyte cell line P31/FUJ (JCRB0091, establisher: Fujioka, obtained from the Human Science Research Resource Bank), the percent inhibition of cytokine production by the test compound was measured. The test compound was dissolved in N,N-dimethylformamide to 10 mM and diluted with RPMI-1640 medium to 0.1 mM. Furthermore, it was prepared with a medium to make a final concentration from 10 μM to 10 nM by diluting 10-fold, and added to the culture. The day before the experiment, the cells were prepared with RPMI-1640 medium supplemented with 10% fetal calf serum to a concentration of 2×10^6 cells/ml and plated to a 96-well plate by 2×10^5 cells/0.1 ml per well. The above-mentioned medium (0.1 ml) supplemented with 40 nM phorbol 12-myristate 13-acetate (PMA) was added and the mixture was cultured at 37° C. under 5% CO2/95% air overnight. The cells were washed with the above-mentioned medium to remove PMA and the prepared test compound was added, and LPS and interferon-γ were added to a final concentrations of 100 ng/ml and 10 U/ml, respectively. After culturing overnight, the concentration of TNF-α and IL-1β in the culture supernatant was measured. For quantitative determination of each cytokine, a quantitative determination kit by Amersham was used.

blood NOx concentration = test: Effect against increase in blood nitrogen oxide concentration in LPS-treated mice; format: in vivo, mouse; conditions: female BALB/c mice, 10 mg/kg orally 1 h before LPS 10 mg/kg i.p., sera at 6 h after LPS, relative to control group
Excerpt: When a biological defense response against infection and the like, immunopathy and the like causes NO production in the body, it is quickly metabolized into nitrous acid and nitric acid, whereby blood nitrogen oxide concentration (NOx) increases. Using test animals, the effect of the test compound against increase in blood NOx concentration was examined.
Female BALB/c mice (7-week-old) were divided into 6–8 mice per group. For the test compound group, the test compound was suspended in 0.5% aqueous methylcellulose solution and 10 mg/kg thereof was orally administered. For the control group, a solvent was similarly administered. One hour later, LPS (10 mg/kg) was intraperitoneally administered to the test compound group and the control group. At 6 h after LPS administration, blood was drawn and nitrate ion+nitrite ion concentration in sera was measured. The nitrate ion was converted to nitrous acid ion with nitrate reductase and quantitatively measured as a total nitrite ion concentration by fluorescence method using the aforementioned DAN.

[3] = test system: TNF-α production by human monocyte cell line P31/FUJ; test: Inhibitory activity on TNF-α production in P31/FUJ cells; format: cell-based; conditions: PMA pretreated, LPS 100 ng/ml + interferon-γ 10 U/ml, overnight
Experimental: as §1

[4] = Mus musculus, RAW264.7, RAW264.7 cells

| Structure (SMILES) | IC50 [1, 4] [µM] | IC50 ([1]; RAW264.7 cells) [µM] | other results |
| --- | --- | --- | --- |
| CCOC(=O)C1=CCOCC1S(=O)(=O)Nc1ccc(F)cc1F (stereo not shown) [Compound 7, ethyl 3-[(2,4-difluorophenyl)-sulfamoyl]-3,6-dihydro-2H-pyran-4-carboxylate] | 0.018 | – | – |
| CCOC(=O)C1=CCCCC1S(=O)(=O)Cc1ccc(OC)cc1 (stereo not shown) [Compound 2, ethyl 6-[(4-methoxybenzyl)sulfonyl]-1-cyclohexene-1-carboxylate] | 3.2 | – | – |
| CCOC(=O)C1=CCCCC1S(=O)(=O)Cc1ccccc1 (stereo not shown) [Compound 1, ethyl 6-(benzylsulfonyl)-1-cyclohexene-1-carboxylate] | 0.24 | – | – |
| CCOC(=O)C1=CCOCC1S(=O)(=O)Nc1ccc(F)cc1Cl (stereo not shown) [Compound 8, ethyl 3-[(2-chloro-4-fluorophenyl)sulfamoyl]-3,6-dihydro-2H-pyran-4-carboxylate] | 0.0031 | – | IC50 ([2]; Homo sapiens, P31-FUJ): 0.011 µM; Blood NOx inhibition (%) (blood NOx concentration): 80%; IC50 ([3]; Homo sapiens, P31-FUJ): 0.02 µM |
| CCOC(=O)C1=CCCCC1S(=O)(=O)Cc1ccc(F)cc1Cl (stereo not drawn) [Compound 5, ethyl (−)-6-[(2-chloro-4-fluorobenzyl)sulfonyl]-1-cyclohexene-1-carboxylate] | – | 1 | – |
| CCOC(=O)C1=CCCCC1S(=O)(=O)Cc1ccc(F)cc1Cl (stereo not shown) [Compound 4, ethyl 6-[(2-chloro-4-fluorobenzyl)-sulfonyl]-1-cyclohexene-1-carboxylate] | – | 0.029 | IC50 [2]: 0.58 µM; Blood NOx inhibition (%) (blood NOx concentration): 62%; IC50 ([3]; Homo sapiens, P31-FUJ): 0.2 µM |
| CCOC(=O)C1=CCCCC1S(=O)(=O)Cc1ccc(F)cc1Cl (stereo not drawn) [Compound 6, ethyl (+)-6-[(2-chloro-4-fluorobenzyl)sulfonyl]-1-cyclohexene-1-carboxylate] | – | 0.0093 | IC50 [2]: 0.23 µM; IC50 [3]: 0.15 µM |
| CCOC(=O)C1=CCCCC1S(=O)(=O)Cc1ccc(F)cc1F (stereo not shown) [Compound 3, ethyl 6-[(2,4-difluorobenzyl)sulfonyl]-1-cyclohexene-1-carboxylate] | 0.047 | – | – |

Reference: patent US7078540B1, “Substituted aromatic-ring compounds, process for producing the same, and use” (Takeda Pharmaceutical Company Limited, priority 1999, dated 2006)
